# Experiments:
# [1] = test system: streptozotocin-induced diabetic nephropathy rats; conditions: cited from earlier work
# [2] = test system: renal function impairment induced by uninephrectomy, high sodium loading and protein loading; conditions: cited from earlier work
# HUS [3] = conditions: in vivo; cited from earlier work
# [4] = test system: cats with chronic renal failure; assay: Blood biochemical analysis and urinalysis (BUN, serum Cre, glucose) in cats with chronic renal failure; type: in vivo, cat; conditions: Case-F, male cat 11 y, diabetic nephropathy; protamine zinc insulin 2 units/BID, 2 months
# Procedure: Testing methods for the patients showing uremia caused by chronic renal failure, employed in Example 4 or later, will now be described. The criteria and evaluation items for the cats and dogs with chronic renal failure are as follows: Diagnosis of uremia and chronic renal failure were performed totally taking clinical findings (including findings of uremia) and the results of the blood test, blood biochemical analysis and urinalysis into consideration. As the clinical findings of uremia, existence and degree of polydipsia and diuresis, dehydration, anorexia, weight loss, vomiting symptom and state of dehydration were observed. Existence of chronic renal failure was judged based on the serum Cre value as generally employed. As reference data for grasping the degree of progress of chronic renal failure, BUN value was also monitored.
# In the blood test, RBC, WBC, PCV, Hg and PLT were measured. In the blood biochemical analysis, TP, Tcho, AST, ALT, ALP, Tbil, BUN, creatinine, calcium, inorganic phosphorus, glucose, sodium ion, potassium ion and chloride ion were measured. In the urinalysis, protein amount, pH, occult blood, bilirubin and glucose were measured. To eliminate the circadian rhythm and influence by meals on the values of blood biochemical markers, every blood collection was carried out in the morning before feeding (at fasting).
# As a more specific criterion for chronic renal failure in cats and dogs in the present Examples, a serum Cre value of 1.4 mg/dL in the blood test was employed. Serum Cre value was measured by creatinine deaminase-amidohydrolase method, and the BUN value as reference data for grasping the degree of progress of chronic renal failure was measured by urease-GLDH method.
# Administration of beraprost sodium was conducted by orally administering the tablet with a content of 150 μg/tablet (Example 1) twice a day (300 μg/head/day). The administration was conducted every day and continued basically for 6 months, and in cases where the owner desired, the administration was continued even after the test period. The Examples of the present invention include both cases where the dosing period was less than 6 months and more than 6 months.
# [5] = test system: Thy-1-induced nephritis models; conditions: prophylactic administration before induction of nephritis; cited from earlier work
# HUS [6] = conditions: one case of HUS; cited from earlier work
compound,measurement,setting,value
CCC#CC[C@H](C)[C@H](O)C#C[C@@H]1[C@H]2C/C(=C/COCC(=O)O)C[C@H]2C[C@H]1O [cicaprost],renal function impairment,[1],activity to reduce the renal function impairment
same,renal function impairment,[2],activity to reduce the renal function impairment
"CCCCC[C@H](O)/C=C/[C@@H]1[C@H]2C/C(=C/CCCC(=O)O)O[C@H]2C[C@H]1O [PGI2, prostaglandin I2]",progress of HUS,HUS [3],does not have an activity to inhibit the progress of HUS
insulin: protamine zinc insulin for treating diabetes,fasting blood glucose,[4],100 mg/dL
CC#CCC(C)[C@H](O)/C=C/[C@@H]1[C@H]2C/C(=C/CCCC(=O)O)C[C@H]2C[C@H]1O (stereo partly drawn) [iloprost],urinary protein,[5],decreased
same,improvement of the serum Cre value,HUS [6],effective

# From US9783518B2, “Therapeutic agent and treatment method for ameliorating uremia” (Toray Industries, Inc., priority 2005, dated 2017)
